One assay has as its system Bacteroides spp. Nature of the assay: Anaerobic fecal cultures with 1% prebiotic, 16S rDNA quantification. The assay is classed as cell-based. The settings on record: fecal cultures of 12 healthy human subjects, 3-4 days at 37° C. As for the experimental part: (§1) Fecal samples derived from 12 healthy human subjects were cultivated in the presence or absence of 1% prebiotic. 16S rDNA sequences corresponding to Bifidobacterium, Bacteroides and Akkermansia muciniphila were quantified. Data are representative of three independent experiments. Graphs show the mean±s.e.m. *P<0.05, **P<0.005, ***P<0.001, ****P<0.0001 by one-way ANOVA with Tukey's correction.
(§2) Anaerobic fecal cultures. […] Anaerobic cultures (9% H2, 81% N2) were grown statically for 3-4 days at 37° C. and grown to approximate saturation.
(§3) Chemically-defined medium (CDM). CDM contains 50 mM HEPES, 2.2 mM KH2PO4, 10 mM Na2HPO4, 60 mM NaHCO3, 4 mM of each amino acid, except leucine (15 mM), 10 mL ATCC, Trace Mineral Supplement. CDM contained nucleoside bases (100 mg/L), inosine, xanthine, adenine, guanine, cytosine, thymidine and uracil (400 mg/L). CDM contained choline (100 mg/L), ascorbic acid (500 mg/L), lipoic acid (2 mg/L), hemin (1.2 mg/L) and myo-inositol (400 mg/L). Resazurin (1 mg/L) was added to visually monitor dissolved oxygen. The pH of the media was adjusted to 7.4.
(§4) Fecal samples derived from 12 healthy, vegetarian human subjects were cultivated in a chemically-defined medium the presence or absence of 1% prebiotic. Anaerobic cultures (9% H2, 81% N2) were grown statically for 3-4 days at 37° C. and grown to approximate saturation.

In another assay the test system is A. muciniphila. The description is as above. The assay is classed as cell-based, human. The settings on record: in most of the cultures. As for the experimental part: as §1, §2, §3, §4
The subject of the next assay is Bifidobacterium spp. The description is as above. The assay is classed as cell-based, human. The settings on record: in two of these cultures. As to the method: as §1, §2, §3, §4
In assay [1] the test system is serum cytokines and chemokines. Nature of the assay: Serum cytokine and chemokine detection (LEGENDplex). The format is in vivo, mice. An excerpt: Graphs show the mean±s.e.m. *P<0.05, ****P<0.0001 by two-tailed t-test or Mann-Whitney U test.
Serum cytokine and chemokine detection. Cytokines and chemokines in the sera of naïve or tumor-bearing mice treated with or without mucin were quantified using the LEGENDplex™ mouse inflammation panel and mouse proinflammatory chemokine panel (BioLegend), respectively. All data were collected on an LSRFortessa (BD Biosciences) and analyzed using LEGENDplex™ software (BioLegend).
Levels of circulating cytokines and chemokines were quantified in mucin-treated mice both before and after tumor inoculation.

Assay [2] relates to MC-38 mouse colorectal cancer cells. Nature of the assay: Flow cytometry of tumor-infiltrating immune cells in MC-38 tumors. The assay is classed as in vivo, C57BL/6 mice. As to the method: Tumor digestion. Tumors were excised, minced, and digested with 1 mg/ml collagenase D (Roche) and 100 μg/ml DNase I (Sigma) at 37° C. for 1 h. Digests were then passed through a 70-μm cell strainer to generate a single-cell suspension. The cells were washed twice with PBS containing 2 mM EDTA, and then stained for flow cytometry.
Flow cytometry. Tumor-derived single-cell suspensions were washed twice with FACS staining buffer, fixed for 15 min with 1% formaldehyde in PBS, washed twice, and resuspended in FACS staining buffer. For intracellular cytokine staining, cells were resuspended in complete RPMI-1640 (containing 10 mM HEPES, 1% non-essential amino acids and L-glutamine, 1 mM sodium pyruvate, 10% heat-inactivated fetal bovine serum (FBS), and antibiotics) supplemented with 50 U/mL IL-2 (NCI), […] brefeldin A (BFA, Sigma), and incubated with phorbol myristate acetate (10 ng/ml) and ionomycin (0.5 μg/ml) at 37° C. The cells were then fixed and permeabilized using a Cytofix/Cytoperm Kit (BD Biosciences) before staining. Antibodies to the following proteins were used: CD45.2 (104), CD8a (53-6.7), CD4 (GK1.5), CD44 (IM7), TNF-α (MP6-XT22), IFN-γ (XMG1.2), CD11c (N418), CD11b (M1/70), MHC class II (M5/114.15.2), PDCA (129c1), and B220 (RA3-6B2) from BioLegend, and antibodies to IL-2 (JES6-5H4) and MHC class I (AF6-88.5.5.3) from eBioscience. All data were collected on an LSRFortessa (BD Biosciences) and analyzed using FlowJo Software (Tree Star).
MC-38 mouse colorectal cancer cells (1×10^6) were inoculated, and diets were continued after inoculation.

Assay [3] has as its system bone marrow-derived dendritic cells (BMDCs). Nature of the assay: Activation of bone marrow-derived dendritic cells in vitro. The format is cell-based, murine. The settings on record: 24 h, 0.05 and 0.5 mg/ml. The text has this:
(§5) Data are representative of two independent experiments. Graphs show the mean±s.e.m. *P<0.05, **P<0.005, ***P<0.001, ****P<0.0001 one-way ANOVA with Tukey's correction.
Bone Marrow-Derived Dendritic Cells (BMDCs).

The next assay concerns CD8+ T cells. Nature of the assay: qRT-PCR of cytokine and chemokine mRNAs in CD8+ T cells in vitro. To be noted: 0.05 or 0.5 mg/ml in vitro; in some conditions. The assay is classed as cell-based, mice.
Excerpt: as §5
RNA extraction and qRT-PCR analyses. Total RNA was extracted from tumor samples individually using the RNeasy Fibrous Tissue Midi kit (QIAGEN) or cells treated as indicated using High Capacity Reverse Transcriptase kits (Invitrogen) according to the manufacturer's protocol. Purity and concentration of extracted RNA were checked and quantified by reading at 260 and 280 nm in a NanoDrop spectrophotometer (Thermo Fisher). The qRT-PCR analyses were performed using Syber Green RT-PCR kits (Invitrogen) on a Bio-Rad CFX Connect Real-Time system. Expression levels normalized to 18S or Tubb5 controls.

The subject of assay [4] is SW1 (syngeneic NRAS mutant melanoma) cells. Nature of the assay: SW1 melanoma growth with mucin and/or inulin. The format is in vivo, C3H/HeOuJ mice. The settings on record: 3% mucin in drinking water and/or 15% inulin diet from 14 days prior to inoculation.
Excerpt: FIG. 17A Growth of SW1 mouse melanoma cells in C3H/HeOuJ mice that were fed with 0 or 3% mucin in drinking water and/or a diet enriched with 15% inulin, starting 14 days prior to (and continued after) tumor inoculation (n=10). FIG. 17B. […] Graphs show the mean±s.e.m. *P<0.05, **P<0.005,***P<0.001, ****P<0.0001 by two-way ANOVA with Tukey's correction.
Animals and tumor models. All experimental animal procedures were approved by the Institutional Animal Care and Use Committee of Sanford Burnham Prebys Medical Discovery Institute (SBP) and complied with all relevant ethical regulations for animal testing and research. C57BL/6 mice were obtained from Sanford Burnham Prebys Medical Discovery Institute. […] C3H/HeOuJ mice were purchased from Jackson laboratories. Male 6-8-week-old mice were used for all experiments. […] All mice were fed an autoclaved chow diet ad libitum (LabDiet 5K67, Purina Foods). […] Mouse selection for experiments was not formally randomized or blinded. For tumor growth experiments, mice were injected subcutaneously (s.c.) with 1×10^6 tumor cells. Tumor size was measured twice a week for calculation of tumor volume. Tumors were weighed at the time of excision.
Mucin and inulin treatment. For mucin treatment, C57BL/6 mice were subjected to control or water supplemented with 3% mucin (Lee Biosolutions) prior to (14 days) and during tumor inoculation. […]

For mucin, the “relative abundance of Bacteroides spp.” value with Bacteroides spp. is “increased”. Also, the “relative abundance of A. muciniphila” value in the assay on A. muciniphila was “increased”. The Bifidobacterium spp. entry with Bifidobacterium spp. is reported as “not”. Besides, the “serum levels of IL-6, IL-1a, IL-10, IL-17A and IL-23” value in assay [1] (following tumor inoculation (10 days), compared with control) is on record as “reduced levels”. For the same substance, the “serum levels of IL-1a and CXCL13” value in assay [1] (mucin feeding for two weeks, prior to tumor inoculation) is given as “Higher levels”. In assay [1] (tumor-inoculated mice (10 days), compared with control), the “serum levels of chemokines CXCL1 and CXCL13” value is given as “Lower serum levels”. The “CD4+ or CD8+ T cells, CD45+ cells, cytokine production, DCs and DC subsets in tumors” value in assay [2] is “No differences”. In addition, the “CD40, CD80, MHC I and MHC II on BMDCs” value in assay [3] is given as “increased”. Also, in the assay with CD8+ T cells, the “expression of Granzyme B, CCL4, and CCL5 in CD8+ T cells” value is given as “enhanced expression”. In addition, the SW1 tumor growth entry in assay [4] is “attenuated tumor growth”.

(Values after patent publication US20220370553A1, “PREBIOTIC-INDUCED ANTI-TUMOR IMMUNITY” (Sanford Burnham Prebys Medical Discovery Institute, priority 2019, published 2022).)
